pIC50: −log10 of the molar value.
Legend:
AMPKa = assay: Kinase selectivity (Eurofins Cerep), AMPKa; type: biochemical, human; details: maximal concentration tested 10 μM
Method: (§1) The assays were performed in Eurofins Cerep (France). The concentration range of the compound under investigation was from 10^−9 M up to 10^−5 M final concentration.

IL-1β = assay: Gene expression in rat articular chondrocytes under IL-1β stimulation, IL-1β; type: cell-based; details: Rattus norvegicus, Chondrocyte; 6 h incubation
Outline: (§2)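 RT-qPCR read-out, normalised to 18S (relative quantification): IL-1β and ADAMTS-5 transcripts at 6 h, MMP3 and MMP13 at 24 h. Primary rat chondrocytes in DMEM GlutaMAX I 0.4% were co-treated with compound plus 2 ng/ml cytokine. Maximal compound concentration was limited by chondrocyte toxicity.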

VEGFR2 [1] = target: T1, VEGFR2 (Homo sapiens (Human), UniProt P35968); assay: In vitro VEGFR2 kinase activity assay (Eurofins Cerep); type: biochemical; details: read-out: VEGFR2 KINASE INHIBITION IC50
Outline: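 Contract biochemical kinase assay on human VEGFR2 with inhibitors at 10^−8 to 10^−5 M final (some re-tested from 10^−9 M). Activity expressed as percent of no-compound control; IC50 by non-linear regression of mean replicate inhibition curves.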

VEGFR2 [2] = target: T1, VEGFR2; assay: ADP-Glo kinase assay at high ATP concentration (0.5 mM), VEGFR2; type: biochemical; details: ATP 0.5 mM; read-out: VEGFR2 IC50 in the presence of high ATP concentration
Method: The inhibition of Fyn and VEGFR2 kinase activity was evaluated in the presence of a fixed ATP concentration (0.5 mM), near to the millimolar range present in cells. The assay was performed by The ADP-Glo™ Kinase Assay (Promega), monitoring ADP produced in the kinase reaction. Kinase reaction was performed in 10 μl, according to supplier indication, in a white 384-well plate.
Inhibitor solutions in DMSO/Kinase buffer and the kinase (Fyn 2.5 ng/μl and VEGFR2 0.5 ng/μl final concentration in assay) were pre-incubate 15 minutes at room temperature. The range of inhibitor concentrations was from 10^−10 M up to 10^−5 M (final concentration in assay). To start the reaction, a substrate/ATP mix (0.5 mM final concentration, corresponding to 10× ATP KM value) was added to each sample. After 60 minutes incubation at room temperature, ADP-Glo™ Reagent and Kinase Detection Reagent, added and incubated in sequence according to supplier indication, allowed to stop and develop the kinase reaction. The percentage of inhibition, calculated towards the enzymatic activity in the absence of test compound, and the corresponding inhibition curves were analyzed by non-linear curve fitting (GraphPad software, version 7 for Windows), allowing to calculate the IC50 value.

VEGFR = VEGFR (Homo sapiens (Human), UniProt P35968); assay: Inhibition of VEGF-induced VEGFR (Y1175)-phosphorylation in HUVEC-C cells; type: cell-based; details: starting from the concentration of 0.01 μM; VEGF 50 ng/ml
Method: HUVEC-C cells (Human Umbilical Vein Endothelial Cells from ATCC) were plated at 6×10^4 cells/well in 24 w microplates and grown adherent in medium F12K+0.1 mg/ml Heparin+0.05 mg/ml ECGS+10% FBS at 37° C. with 5% CO2. After 24 h, medium was removed and starvation was induced overnight in medium F12K+0.1 mg/ml Heparin+0.5% FBS (medium starvation). At the end of incubation, treatment of cells was performed by medium replacement and by adding fresh medium starvation containing or not diluent (DMSO 0.1% final concentration), or test compound (range 10^−8 M-10^−5 M). After 1 hour, VEGF stimuli (50 ng/ml final concentration) was added to each sample, with the exception of “basal-no stimulus” sample; plate was then incubated for 5 min at 37° C. with 5% CO2. At the end of the incubation, the medium was removed and cellular lysates, obtained by adding M-PER lysis/Protease/Phosphatase inhibitors cocktail. Then, lysates were transferred into Eppendorf tubes, sonicated and stored at −80° C.
Lysates were analyzed by Western blot for VEGFR phosphorylation (Tyrosine 1175) and total receptor amount determination. Densitometric analysis of sample lanes were performed by ImageQuant TL software (GE Healthcare Life Sciences). Each sample value was normalized by respective actin; resulting data were used to calculate inhibitory effect of compounds with respect to stimuli control (absence of inhibitor).

MMP3 = assay: Gene expression in rat articular chondrocytes under IL-1β stimulation, MMP3; type: cell-based; details: Rattus norvegicus, Chondrocyte; 24 h incubation
Outline: as §2

human FynB = human FynB (Homo sapiens, UniProt P06241); assay: Inhibition of FynB-induced Tau(Y18)-phosphorylation in HEK293 cells; type: cell-based
Method: After 24 h, cells were transfected in order to over-express either constitutively active form of human FynB and Tau protein (isoform 0N4R), through an optimized Lipofectamine®3000 Transfection protocol (Life Technologies™). A non-transfected sample (negative control) was included in every experiment. Twenty-four hours from transfection, treatments of cells were performed by adding fresh medium containing diluent (DMSO 0.1% final concentration) or test compounds. The incubation was carried out for 6 or 24 hours at 37° C. with 5% CO2. At the end of the incubation, the medium was removed and cellular lysates, obtained by adding M-PER lysis/Protease/Phosphatase inhibitors cocktail, were transferred into Eppendorf tubes, sonicated and stored at −80° C. Protein content was measured by Bradford method. Lysates were analyzed either by customized ELISA assays for Tau phosphorylation (Tyrosine 18 residue—Fyn mediated) and Tau-Total amount determination.

MMP13 = assay: Gene expression in rat articular chondrocytes under IL-1β stimulation, MMP13; type: cell-based; details: Rattus norvegicus, Chondrocyte; 24 h incubation
Outline: as §2

[3] = Pharmacokinetics, systemic routes, rats; type: in vivo
FGFR2 = FGFR2 (Homo sapiens (Human), UniProt P21802); details: read-out: KINASE SELECTIVITY IC50 FGFR2
Method: as §1

Lyn-A = Lyn-A (Homo sapiens (Human), UniProt P07948); details: read-out: KINASE SELECTIVITY IC50 Lyn-A
Method: as §1

Jak3 = Jak3 (Homo sapiens (Human), UniProt P52333); details: read-out: KINASE SELECTIVITY IC50 Jak3
Method: as §1

Yes = Yes (Homo sapiens (Human), UniProt P07947); details: read-out: KINASE SELECTIVITY IC50 Yes
Method: as §1

Src = Src (Homo sapiens (Human), UniProt P12931); details: read-out: KINASE SELECTIVITY IC50 Src
Method: as §1

Sequence of human FynB (P06241 2-537 limits assumed): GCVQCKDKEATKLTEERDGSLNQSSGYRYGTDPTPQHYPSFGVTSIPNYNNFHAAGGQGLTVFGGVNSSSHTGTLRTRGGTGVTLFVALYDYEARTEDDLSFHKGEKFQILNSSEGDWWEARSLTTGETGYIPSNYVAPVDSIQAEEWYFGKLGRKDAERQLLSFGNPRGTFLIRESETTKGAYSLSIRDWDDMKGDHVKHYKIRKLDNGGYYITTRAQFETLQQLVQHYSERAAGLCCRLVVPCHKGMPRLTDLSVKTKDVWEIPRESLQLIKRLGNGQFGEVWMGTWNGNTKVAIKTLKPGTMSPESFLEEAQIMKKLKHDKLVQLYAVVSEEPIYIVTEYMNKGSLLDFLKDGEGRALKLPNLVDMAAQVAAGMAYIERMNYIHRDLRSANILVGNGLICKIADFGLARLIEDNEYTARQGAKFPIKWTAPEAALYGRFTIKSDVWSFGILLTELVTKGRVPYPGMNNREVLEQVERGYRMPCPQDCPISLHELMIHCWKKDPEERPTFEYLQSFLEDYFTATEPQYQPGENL
T1 sequence (P35968 20-1356): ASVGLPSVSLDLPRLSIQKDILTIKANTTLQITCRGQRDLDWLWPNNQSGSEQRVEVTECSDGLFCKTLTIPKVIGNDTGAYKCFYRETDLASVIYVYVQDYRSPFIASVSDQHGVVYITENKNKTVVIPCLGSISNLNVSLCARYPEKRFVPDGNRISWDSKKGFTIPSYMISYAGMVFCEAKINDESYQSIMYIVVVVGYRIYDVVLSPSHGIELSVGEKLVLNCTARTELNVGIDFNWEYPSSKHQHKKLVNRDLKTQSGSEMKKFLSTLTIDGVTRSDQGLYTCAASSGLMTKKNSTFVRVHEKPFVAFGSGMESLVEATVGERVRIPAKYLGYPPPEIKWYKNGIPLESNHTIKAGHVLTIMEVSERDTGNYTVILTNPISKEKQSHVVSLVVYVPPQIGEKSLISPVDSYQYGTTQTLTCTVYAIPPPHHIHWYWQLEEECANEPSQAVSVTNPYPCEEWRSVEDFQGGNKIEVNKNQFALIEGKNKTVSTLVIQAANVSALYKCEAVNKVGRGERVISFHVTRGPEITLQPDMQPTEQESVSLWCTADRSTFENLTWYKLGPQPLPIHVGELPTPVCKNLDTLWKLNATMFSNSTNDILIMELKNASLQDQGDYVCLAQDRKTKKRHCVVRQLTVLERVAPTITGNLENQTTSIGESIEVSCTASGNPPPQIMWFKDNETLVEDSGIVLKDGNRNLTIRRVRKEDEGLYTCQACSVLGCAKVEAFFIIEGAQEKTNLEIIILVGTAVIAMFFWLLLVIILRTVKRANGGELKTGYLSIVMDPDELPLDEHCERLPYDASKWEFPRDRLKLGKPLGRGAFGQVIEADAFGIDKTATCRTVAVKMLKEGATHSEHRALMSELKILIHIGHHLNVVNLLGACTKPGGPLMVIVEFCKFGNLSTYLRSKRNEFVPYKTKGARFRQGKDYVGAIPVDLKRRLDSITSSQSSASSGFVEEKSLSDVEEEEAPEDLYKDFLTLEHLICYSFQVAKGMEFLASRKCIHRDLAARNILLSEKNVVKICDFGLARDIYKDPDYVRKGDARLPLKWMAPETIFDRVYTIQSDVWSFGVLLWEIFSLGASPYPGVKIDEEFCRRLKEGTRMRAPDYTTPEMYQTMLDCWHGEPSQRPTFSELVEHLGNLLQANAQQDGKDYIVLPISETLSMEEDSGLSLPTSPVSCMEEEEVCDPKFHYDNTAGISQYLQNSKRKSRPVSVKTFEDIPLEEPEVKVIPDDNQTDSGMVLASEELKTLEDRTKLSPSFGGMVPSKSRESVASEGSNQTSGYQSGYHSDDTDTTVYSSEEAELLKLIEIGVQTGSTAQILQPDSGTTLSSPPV
Sequence of FGFR2 (P21802 22-821): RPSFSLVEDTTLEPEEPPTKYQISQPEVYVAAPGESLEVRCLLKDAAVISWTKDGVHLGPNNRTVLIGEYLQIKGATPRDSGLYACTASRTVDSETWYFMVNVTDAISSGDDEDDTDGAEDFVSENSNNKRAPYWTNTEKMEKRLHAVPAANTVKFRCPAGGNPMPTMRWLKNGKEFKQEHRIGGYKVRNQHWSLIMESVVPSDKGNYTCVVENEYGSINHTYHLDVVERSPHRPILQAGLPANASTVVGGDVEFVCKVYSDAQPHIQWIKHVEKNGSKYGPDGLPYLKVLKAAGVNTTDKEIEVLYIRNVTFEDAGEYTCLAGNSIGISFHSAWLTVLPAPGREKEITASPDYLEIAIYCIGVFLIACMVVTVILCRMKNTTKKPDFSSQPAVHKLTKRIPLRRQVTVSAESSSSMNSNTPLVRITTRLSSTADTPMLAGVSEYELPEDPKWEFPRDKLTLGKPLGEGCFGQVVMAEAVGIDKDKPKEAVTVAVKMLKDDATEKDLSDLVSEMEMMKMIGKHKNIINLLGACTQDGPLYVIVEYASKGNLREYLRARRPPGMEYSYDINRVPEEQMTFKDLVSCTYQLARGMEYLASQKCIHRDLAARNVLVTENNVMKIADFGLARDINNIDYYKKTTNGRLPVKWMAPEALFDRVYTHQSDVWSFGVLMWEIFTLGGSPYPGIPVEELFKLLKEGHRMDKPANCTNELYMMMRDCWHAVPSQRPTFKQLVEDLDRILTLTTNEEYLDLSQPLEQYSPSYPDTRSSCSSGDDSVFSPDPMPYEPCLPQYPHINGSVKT
Sequence of Jak3 (P52333 whole entry): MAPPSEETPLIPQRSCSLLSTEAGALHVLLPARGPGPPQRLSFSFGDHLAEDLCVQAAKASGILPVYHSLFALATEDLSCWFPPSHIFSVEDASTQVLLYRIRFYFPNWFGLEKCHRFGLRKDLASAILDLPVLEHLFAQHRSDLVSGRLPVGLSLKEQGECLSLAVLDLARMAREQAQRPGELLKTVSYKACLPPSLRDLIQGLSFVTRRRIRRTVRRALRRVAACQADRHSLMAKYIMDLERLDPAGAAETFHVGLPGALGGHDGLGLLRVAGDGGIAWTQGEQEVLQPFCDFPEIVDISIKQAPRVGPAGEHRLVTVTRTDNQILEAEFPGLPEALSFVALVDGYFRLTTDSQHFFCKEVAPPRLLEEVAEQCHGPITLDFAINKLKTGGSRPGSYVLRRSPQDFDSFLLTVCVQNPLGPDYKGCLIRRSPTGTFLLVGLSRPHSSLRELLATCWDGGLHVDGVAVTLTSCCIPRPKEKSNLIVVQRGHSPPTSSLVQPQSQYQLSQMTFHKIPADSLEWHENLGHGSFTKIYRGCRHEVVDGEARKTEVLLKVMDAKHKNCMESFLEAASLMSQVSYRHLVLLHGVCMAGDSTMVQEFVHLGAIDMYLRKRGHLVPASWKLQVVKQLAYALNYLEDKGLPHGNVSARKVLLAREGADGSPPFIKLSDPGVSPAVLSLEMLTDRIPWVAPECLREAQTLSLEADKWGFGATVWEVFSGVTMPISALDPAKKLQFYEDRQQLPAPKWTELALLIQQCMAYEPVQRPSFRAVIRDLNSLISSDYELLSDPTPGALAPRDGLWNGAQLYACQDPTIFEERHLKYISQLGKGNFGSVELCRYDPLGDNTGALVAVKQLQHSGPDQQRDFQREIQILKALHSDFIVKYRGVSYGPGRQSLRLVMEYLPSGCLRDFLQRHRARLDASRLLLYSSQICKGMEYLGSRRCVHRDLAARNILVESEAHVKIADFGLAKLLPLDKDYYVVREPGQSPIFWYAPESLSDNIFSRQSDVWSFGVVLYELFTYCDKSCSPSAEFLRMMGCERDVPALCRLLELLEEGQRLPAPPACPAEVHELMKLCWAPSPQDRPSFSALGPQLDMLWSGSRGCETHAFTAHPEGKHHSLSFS
Sequence of Src (P12931 whole entry, looked up): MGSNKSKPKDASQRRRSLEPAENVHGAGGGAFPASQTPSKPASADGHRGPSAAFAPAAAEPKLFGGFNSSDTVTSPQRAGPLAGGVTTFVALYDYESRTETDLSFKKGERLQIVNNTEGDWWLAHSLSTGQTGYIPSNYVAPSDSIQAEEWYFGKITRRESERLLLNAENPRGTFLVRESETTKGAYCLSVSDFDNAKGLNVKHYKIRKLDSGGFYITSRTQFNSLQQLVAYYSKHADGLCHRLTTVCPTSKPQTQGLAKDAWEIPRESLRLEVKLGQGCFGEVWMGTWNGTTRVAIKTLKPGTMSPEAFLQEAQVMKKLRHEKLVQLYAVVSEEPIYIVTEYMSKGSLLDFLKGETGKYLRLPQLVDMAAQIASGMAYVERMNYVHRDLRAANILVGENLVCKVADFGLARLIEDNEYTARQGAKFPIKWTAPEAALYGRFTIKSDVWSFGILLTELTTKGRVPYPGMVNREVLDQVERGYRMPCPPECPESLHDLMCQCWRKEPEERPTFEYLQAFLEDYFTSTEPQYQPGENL
Sequence of Yes (P07947 whole entry): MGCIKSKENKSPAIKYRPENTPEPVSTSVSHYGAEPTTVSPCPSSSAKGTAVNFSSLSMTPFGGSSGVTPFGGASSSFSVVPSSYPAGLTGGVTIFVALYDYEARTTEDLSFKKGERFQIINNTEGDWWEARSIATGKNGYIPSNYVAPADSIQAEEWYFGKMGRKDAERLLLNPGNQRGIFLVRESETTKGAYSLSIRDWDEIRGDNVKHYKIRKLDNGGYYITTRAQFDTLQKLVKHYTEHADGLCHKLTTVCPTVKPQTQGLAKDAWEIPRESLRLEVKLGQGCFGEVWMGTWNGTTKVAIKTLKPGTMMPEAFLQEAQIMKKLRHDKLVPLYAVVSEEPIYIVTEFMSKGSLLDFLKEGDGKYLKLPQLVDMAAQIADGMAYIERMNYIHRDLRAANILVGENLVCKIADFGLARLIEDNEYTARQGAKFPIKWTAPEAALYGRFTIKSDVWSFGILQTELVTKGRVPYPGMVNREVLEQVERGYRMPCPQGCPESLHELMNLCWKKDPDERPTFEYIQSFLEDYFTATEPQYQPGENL
Sequence of VEGFR (P35968 20-1356): as the sequence (P35968 20-1356) above

With Cc1ccc(NC(=O)c2cccc(C(F)(F)F)c2)cc1CCc1cc(Nc2cnccn2)[nH]n1 [Compound 3, N-(4-methyl-3-(2-(5-(pyrazin-2-ylamino)-1H-pyrazol-3-yl)ethyl)phenyl)-3-(trifluoromethyl)benzamide] the pIC50 (AMPKa) was < 5.00, the pIC50 (IL-1β) was 8.70 and the pIC50 (VEGFR2 [1]) was 8.15. For the same molecule, the pIC50 (VEGFR2 [2]) was 7.24, the “Inhibitory activity on VEGFR-phosphorylation at Y1175 residue” value (VEGFR) was “complete inhibitory activity” and the pIC50 (MMP3) was 6.49. The “Effect on Tau-protein total amount” value (human FynB) was “Moderate not significant effect”, the “Mean percentage of inhibition of Tau(Y18)-phosphorylation” value (human FynB; after 24 hours of treatment) was 95% and the pIC50 (human FynB; read-out: Inhibition of FynB-induced Tau(Y18)-phosphorylation IC50, after 6 hours of treatment) was 6.88. For the same molecule, the pIC50 (MMP13) was 6.32, the Metabolism in rats [3] was “lack of important metabolism” and the bioavailability ([3]; rat, in vivo, oral route, read-out: Absolute bioavailability) was ~6%. For the same molecule, the pIC50 (FGFR2) was 5.52, the pIC50 (Lyn-A) was 7.23 and the pIC50 (Jak3) was 5.75. For the same molecule, the pIC50 (Yes) was 7.77 and the pIC50 (Src) was 6.43.

Reference: patent publication US12509446B2, “FYN and VEGFR2 kinase inhibitors” (ROTTAPHARM BIOTECH S.R.L., priority 2019, dated 2025)
